The target of experiment [1] is T1, Torpedo-nAChR of embryonic muscle type (α1)2β1γδ (Torpedo marmorata, UniProt P02711+Q6S3H8+Q6S3H9). The experiment is described as follows: microplate receptor-binding assay, competition with biotin-α-bungarotoxin.
Experiment [2] has as its target T1, Torpedo-nAChR of embryonic muscle type (α1)2β1γδ. The experiment is described as above. The source holds these as a separate data set.

Where two headings read alike, the source gives them in different places.

What is called IC50 is the point on the concentration scale where inhibition reaches its midpoint. A high value points to weaker potency in that assay. Take `C=CC1=C[C@@H]2[C@@H]3O[C@]4(C[C@H]5CCC[C@@]6(CC[C@@]7(O[C@@H](CC[C@@]7(C)O)CC(=C)CCCC7=NC[C@H](C)[C@@H](C)C[C@@]72CC1)O6)O5)C[C@@H](C)[C@@H](O)[C@H]3O4` [PnTX-G, pinnatoxin-G]: the IC50 in experiment [1] came out at 0.0186 µM.

“28-O-palmitoyl ester of pinnatoxin-G [Palmitoyl-PnTX-G]” yielded an IC50 in experiment [2] of 13.1 µM.
